Patent US6787534B2, “Sulfonamide-containing heterocyclic compounds” (Eisai Co., Ltd., priority 1999, dated 2004)
Values after ≈ are worked out from the molar mass of the structure shown.

System: aorta pieces of rat (angiogenesis, capillaries formed around the aorta)
Assay: Antiangiogenic effect: inhibition of capillary formation around rat aorta pieces incubated in collagen
Format: cell-based, rat (Sprague-Dawley)
Details: rat thoracic aorta pieces in Type I collagen gel, MCDB 131 medium; capillaries counted on 7th day from addition of test compound; three-fold dilutions from 10 μg/ml; read-out: IC50 (50% inhibiting concentration of angiogenesis)
Protocol: Pharmacological Experimental Example 1, Antiangiogenic Effect
The inhibition degree of angiogenesis which was observed when aorta pieces of rat were incubated in collagen was defined as an antiangiogenic effect. That is, the thoracic aorta excised from male rat of Sprague-Dawley strain (10-12 weeks age) was washed with a Hanks' solution (Gibco BRL, Gaithersburg, USA) so that fat tissues around there were removed minutely. The aorta was incised to prepare pieces of 2 mm square and they were allowed to stand in a 24-well plate holding the endothelial cells upside. Then, 500 μl of neutralized Type I collagen (Cell Matrix Type I-A; manufactured by Nitta Gelatin) were poured over each well and allowed to stand at room temperature for about 20 minutes in a clean bench to solidify the gel. After confirming that the gel was solidified, 500 μl of MCDB 131 medium (manufactured by Chlorella Kogyo) were added thereto followed by incubating in a CO2 incubator (5% CO2) at 37° C. On the next day, the culture medium was exchanged with 500 μl of MCDB 131 medium containing the test compound and the incubation was continued. After three days, the medium was again exchanged with 500 μl of MCDB 131 medium containing the test compound and, at the stage of the 7th day from the initiation of addition of the test compound, numbers of capillaries formed around the aorta were counted under a microscope. The solution containing the test compound was prepared in a three-fold dilution system where 10 μg/ml was the highest concentration.
Inhibiting rate was calculated from the following formula and 50% inhibiting concentration (IC50) for each test compound was determined.
Inhibiting Rate (%)=(C−T)/Cx100
C: Numbers of capillaries when no compound was added
T: Numbers of capillaries when a compound was added Table 1

SMILES | IC50 [µg/mL]
COc1nccc2cc(NS(=O)(=O)c3ccc(-c4nccs4)cc3)ccc12 [Example 77, 1-Methoxy-6-(4-thiazol-2-ylbenzenesulfonylamino)isoquinoline] | 0.39 (≈ 0.981 µM)
O=S(=O)(Nc1cnc2c(I)cccc2c1)c1cncc2ccccc12 [Example 15, N-(8-Iodoquinolin-3-yl)-4-isoquinolinesulfonamide] | 0.87 (≈ 1.89 µM)
CCc1cncc2ccc(NS(=O)(=O)c3ccc(Cl)cc3)cc12 [Example 81] | 0.85 (≈ 2.45 µM)
O=S(=O)(Nc1ccc2c(Br)cncc2c1)c1ccc(Cl)nc1 [Example 59, N-(4-Bromoisoquinolin-7-yl)-6-chloro-3-pyridinesulfonamide] | 0.2 (≈ 0.502 µM)
CCc1nccc2cc(NS(=O)(=O)c3ccc(Cl)cc3)ccc12 [Example 80, 6-(4-Chlorobenzenesulfonylamino)-1-ethylisoquinoline] | 0.2 (≈ 0.577 µM)
N#Cc1ccc(S(=O)(=O)Nc2cnc3c(C(F)(F)F)cccc3c2)cc1 [Example 38, N-(8-Trifluoromethylquinolin-3-yl)-4-cyanobenzenesulfonmide] | 0.15 (≈ 0.398 µM)
CCNS(=O)(=O)c1ccc(S(=O)(=O)Nc2cnc3c(Br)cccc3c2)cc1 [Example 6, N-(8-Bromoquinolin-3-yl)-4-(N-ethylsulfamoyl)benzenesulfonamide] | 0.12 (≈ 0.255 µM)
N#Cc1ccc(S(=O)(=O)Nc2ccc3c(Cl)nccc3c2)cc1 [Example 61, 1-Chloro-6-(4-cyanobenzenesulfonylamino)isoquinoline] | 0.3 (≈ 0.873 µM)
COc1nccc2cc(NS(=O)(=O)c3ccc(N)nc3)ccc12 [Example 69, 6-(2-Aminopyridin-5-ylsulfonylamino)-1-methoxyisoquinoline] | 0.15 (≈ 0.454 µM)
CCNS(=O)(=O)c1ccc(S(=O)(=O)Nc2ccc3c(Br)cccc3n2)cc1 [Example 27, N-(5-Bromoquinolin-2-yl)-4-(N-ethylsulfamoyl)benzenesulfonamide] | 0.08 (≈ 0.17 µM)
O=S(=O)(Nc1cnc2c(Br)cccc2c1)c1ccc2c(c1)CCC2 [Example 11, N-(8-Bromoquinolin-3-yl)-5-indanesulfonamide] | 0.04 (≈ 0.0992 µM)
N#Cc1nccc2cc(NS(=O)(=O)c3ccc(Cl)cc3)ccc12 [Example 84, 6-(4-Chlorobenzenesulfonylamino)-1-cyanoisoquinoline] | 0.14 (≈ 0.407 µM)
O=c1cc(C(F)(F)F)c2ccc(NS(=O)(=O)c3ccc(Cl)cc3)cc2o1 [Example 92, N-(4-Trifluoromethylcoumarin-7-yl)-4-chlorobenzenesulfonamide] | 0.2 (≈ 0.495 µM)
C=Cc1cccc2nc(NS(=O)(=O)c3cccnc3)ccc12 [Example 91, N-(5-Vinylquinolin-2-yl)-3-pyridinesulfonamide] | 0.33 (≈ 1.06 µM)
N#Cc1ccc(S(=O)(=O)Nc2cnc3c(Br)cccc3c2)cc1 [Example 4, N-(8-Bromoquinolin-3-yl)-4-cyanobenzenesulfonamide] | 0.09 (≈ 0.232 µM)
Cc1cncc(S(=O)(=O)Nc2ccc3c(Br)cccc3n2)c1 [Example 2, N-(5-Bromoquinolin-2-yl)-5-methyl-3-pyridinesulfonamide] | 0.74 (≈ 1.96 µM)
CC(=O)NCCc1ccc(S(=O)(=O)Nc2cnc3c(Br)cccc3c2)cc1 [Example 48, N-(8-Bromoquinolin-3-yl)-4-(2-acetamideethyl)benzenesulfonamide] | 0.35 (≈ 0.781 µM)
O=S1(=O)CCCc2cc(S(=O)(=O)Nc3cnc4c(Br)cccc4c3)ccc21 [Example 50, N-(8-Bromoquinolin-3-yl) -1,1-dioxide-6-yl-sulfonamide] | 0.31 (≈ 0.663 µM)
O=S(=O)(Nc1cnc2c(Br)cccc2c1)c1ccc2c(c1)SCCO2 [Example 47, N-(8-Bromoquinolin-3-yl) -4-oxa-7-thiochromansulfonamide] | 0.09 (≈ 0.206 µM)
COc1ccc(S(=O)(=O)Nc2cnc3c(Br)cccc3c2)nn1 [Example 53] | 0.53 (≈ 1.34 µM)
O=S(=O)(Nc1cnc2c(Br)cccc2c1)c1cccnc1 [Example 1, N-(8-Bromoquinolin-3-yl)-3-pyridinesulfonamide] | 0.49 (≈ 1.35 µM)
N#Cc1ccc(S(=O)(=O)Nc2ccc3c(Cl)cccc3n2)cc1 [Example 24, 4-Cyano-N-(5-chloroquinolin-2-yl)-benzenesulfonamide] | 0.49 (≈ 1.43 µM)
